# Results as given in US10538555B2, “Macrocyclic inhibitors of the PD-1/PD-L1 and CD80(B7-1)/PD-L1 protein/protein interactions” (BRISTOL-MYERS SQUIBB COMPANY, priority 2014, dated 2020).
# *1 amine or outer side, *2 acyl side, *3 side chain or, on linkers, in order; H or OH if unused. Where a SMILES comes first, the peptide text is derived from it. Bridges are numbered along the chain shown (N, C = ends). [ ]: non-standard residue; d: D form. ξ: configuration not given here. Trp(1-CH2COOH) = N[C@@H](Cc1cn(CC(=O)O)c2ccccc12)C(=O)O; Phe(3,4,5-F3) = N[C@@H](Cc1cc(F)c(F)c(F)c1)C(=O)O; Phe(3,4-(OMe)2) = COc1ccc(C[C@H](N)C(=O)O)cc1OC; Phe(3,4-F2) = N[C@@H](Cc1ccc(F)c(F)c1)C(=O)O; Trp(1-Me) = Cn1cc(C[C@H](N)C(=O)O)c2ccccc21; NMePhe(4-F) = CN[C@@H](Cc1ccc(F)cc1)C(=O)O; X8 = O=C([C@H](CC1CNc2ccccc21)N[*:1])[*:2]; Phe(4-F) = N[C@@H](Cc1ccc(F)cc1)C(=O)O; d(cisHyp) = O=C(O)[C@H]1C[C@@H](O)CN1; Bta = N[C@@H](Cc1csc2ccccc12)C(=O)O; NMeIle(3ξ) = CCC(C)[C@H](NC)C(=O)O; Hyp = O=C(O)[C@@H]1C[C@@H](O)CN1; NMeF = CN[C@@H](Cc1ccccc1)C(=O)O; X1 = O=C([C@H]1COCCN1[*:1])[*:2]; dNMeF = CN[C@H](Cc1ccccc1)C(=O)O; NMeNle = CCCC[C@H](NC)C(=O)O; dPip = O=C(O)[C@H]1CCCCN1; hSer = N[C@@H](CCO)C(=O)O; NMeA = CN[C@@H](C)C(=O)O; Orn = NCCC[C@H](N)C(=O)O; dThz = O=C(O)[C@H]1CSCN1; Dap = NC[C@H](N)C(=O)O; ξC = NC(CS)C(=O)O
# Biological target: T1, Human PD-L1/PD-1 (Homo sapiens, UniProt Q9NZQ7)
# T1 construct: TVMV protease cleavage site (C); made in house; host or cells: HEK293T cells
# T1 sequence (Q9NZQ7 with tags, fused parts or gaps): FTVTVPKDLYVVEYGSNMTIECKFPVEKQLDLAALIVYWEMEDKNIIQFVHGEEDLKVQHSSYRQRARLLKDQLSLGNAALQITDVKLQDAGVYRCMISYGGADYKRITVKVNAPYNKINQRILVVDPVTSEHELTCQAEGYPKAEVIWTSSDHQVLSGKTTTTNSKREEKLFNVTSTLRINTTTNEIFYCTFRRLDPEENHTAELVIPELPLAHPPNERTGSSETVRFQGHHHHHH
# Assay: HTRF Human PD-L1/PD-1 binding assay (PD-1-Ig/PD-L1-His)
# Conditions: PD-L1-His 10 nM, PD-1-Ig 20 nM; class symbol; read-out: HTRF Human PD-L1/PD-1 Binding Assay IC50 Range
# Procedure, shortened: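 HTRF read-out (665/620 nm ratio) after 30 min equilibration with Eu-cryptate anti-Ig mAb (1 nM) and APC anti-His mAb (20 nM). Peptides preincubated 15 min with PD-L1-His (10 nM), then PD-1-Ig (20 nM) added for 15 min.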
row,SMILES,IC50 [nM]
1,"CCCC[C@H]1C(=O)N2C[C@H](O)C[C@@H]2C(=O)N[C@@H](CC(=O)O)C(=O)N[C@@H](C(C)C)C(=O)N(C)[C@@H](Cc2ccccc2)C(=O)N[C@@H](CCC(=O)O)C(=O)N2CCC[C@@H]2C(=O)N[C@@H](Cc2c[nH]c3ccccc23)C(=O)N[C@@H](Cc2ccc(O)cc2)C(=O)N[C@@H](CCCN)C(=O)N[C@H](C(=O)NCC(N)=O)CSCC(=O)N[C@@H](Cc2cc(F)c(F)c(F)c2)C(=O)N(C)[C@@H](Cc2ccccc2)C(=O)N1C [Example 3646] ({CH2CO}-[Phe(3,4,5-F3)][NMeF][NMeNle][d(cisHyp)]DV[NMeF]E[dP]WY[Orn]CG-NH2; thioether N-13)",10 to 99.9
2,CCCC[C@H]1C(=O)N(C)[C@@H](C)C(=O)N[C@@H](CCCNC(=N)N)C(=O)NC(C(=O)NCC(N)=O)CSCC(=O)N[C@@H](Cc2ccc(O)cc2)C(=O)N(C)[C@@H](C)C(=O)N[C@@H](CC(N)=O)C(=O)N2CCC[C@H]2C(=O)N[C@@H](CO)C(=O)N[C@H](CC(C)C)C(=O)N2C[C@H](O)C[C@H]2C(=O)N[C@@H](Cc2c[nH]c3ccccc23)C(=O)N[C@@H](CO)C(=O)N[C@@H](Cc2csc3ccccc23)C(=O)N1C (stereo partly drawn) [Example 9116] ({CH2CO}-Y[NMeA]NPS[dL][Hyp]WS[Bta][NMeNle][NMeA]R[ξC]G-NH2; thioether N-14),10 to 99.9
3,CCCC[C@H]1C(=O)N(C)[C@@H](CCCC)C(=O)N[C@@H](CCCNC(=N)N)C(=O)N[C@H](C(=O)NCC(N)=O)CSCC(=O)N[C@@H](Cc2ccc(O)cc2)C(=O)N(C)[C@@H](C)C(=O)N[C@@H](CC(=O)O)C(=O)N2CCC[C@H]2C(=O)N[C@@H](Cc2c[nH]cn2)C(=O)N[C@@H](CCCCN)C(=O)N2C[C@H](O)C[C@H]2C(=O)N[C@@H](Cc2c[nH]c3ccccc23)C(=O)N[C@@H](CCCCN)C(=O)N[C@@H](Cc2csc3ccccc23)C(=O)N1C [Example 5256],10 to 99.9
4,"CCCC[C@H]1C(=O)N2C[C@H](O)C[C@@H]2C(=O)N[C@@H](CC(=O)O)C(=O)N[C@@H](C(C)C)C(=O)N(C)[C@@H](Cc2ccccc2)C(=O)N[C@@H](CCC(=O)O)C(=O)N2C[C@H](O)C[C@@H]2C(=O)N[C@@H](Cc2c[nH]c3ccccc23)C(=O)N[C@@H](Cc2ccc(O)cc2)C(=O)N[C@@H](CCC(=O)O)C(=O)N[C@H](C(=O)NCC(N)=O)CSCC(=O)N[C@@H](Cc2ccc(F)c(F)c2)C(=O)N(C)[C@@H](Cc2ccccc2)C(=O)N1C [Example 9312] ({CH2CO}-[Phe(3,4-F2)][NMeF][NMeNle][d(cisHyp)]DV[NMeF]E[d(cisHyp)]WYECG-NH2; thioether N-13)",10 to 99.9
5,CCCC[C@H]1C(=O)N2CCC[C@@H]2C(=O)N[C@@H](CC(=O)O)C(=O)N[C@@H](C(C)C)C(=O)N(C)[C@@H](C(C)CC)C(=O)N[C@@H](CCC(N)=O)C(=O)N2CCCC[C@@H]2C(=O)N[C@@H](Cc2c[nH]c3ccccc23)C(=O)N[C@@H](Cc2ccc(O)cc2)C(=O)N[C@@H](CC(C)C)C(=O)N[C@H](C(=O)NCC(N)=O)CSCC(=O)N[C@@H](Cc2ccc(F)cc2)C(=O)N(C)[C@@H](Cc2ccccc2)C(=O)N1C (stereo partly drawn) [Example 9261] ({CH2CO}-[Phe(4-F)][NMeF][NMeNle][dP]DV[NMeIle(3ξ)]Q[dPip]WYLCG-NH2; thioether N-13),1000 to 10000
6,CCCC[C@H]1C(=O)N(C)[C@@H](CCCC)C(=O)N[C@@H](C)C(=O)N[C@H](C(=O)NCC(N)=O)CSCC(=O)N[C@@H](Cc2ccc(O)cc2)C(=O)N(C)[C@@H](C)C(=O)N[C@@H](CC(=O)O)C(=O)N2CCC[C@H]2C(=O)N[C@@H](Cc2c[nH]cn2)C(=O)N[C@@H](CCC(N)=O)C(=O)N2C[C@H](O)C[C@H]2C(=O)N[C@@H](Cc2c[nH]c3ccccc23)C(=O)N[C@@H](CO)C(=O)N[C@@H](Cc2cn(C)c3ccccc23)C(=O)N1C [Example 1501] ({CH2CO}-Y[NMeA]DPHQ[Hyp]WS[Trp(1-Me)][NMeNle][NMeNle]ACG-NH2; thioether N-14),10 to 99.9
7,CCCC[C@H]1C(=O)N(C)[C@@H](CCCC)C(=O)N[C@@H](CCC(=O)O)C(=O)N[C@H](C(=O)NCC(N)=O)CSCC(=O)N[C@@H](Cc2ccc(O)cc2)C(=O)N(C)[C@@H](C)C(=O)N[C@@H](CC(=O)O)C(=O)N2CCC[C@H]2C(=O)N[C@@H](CO)C(=O)N[C@@H](CC(C)C)C(=O)N2C[C@H](O)C[C@H]2C(=O)N[C@@H](Cc2c[nH]c3ccccc23)C(=O)N[C@@H](CO)C(=O)N[C@@H](CC2CNc3ccccc32)C(=O)N1C (stereo partly drawn) [Example 5184] ({CH2CO}-Y[NMeA]DPSL[Hyp]WS[X8][NMeNle][NMeNle]ECG-NH2; thioether N-14),10 to 99.9

# The next lines start with the values.
row,IC50 [nM],SMILES
1,1 to 9.9,CCCC[C@H]1C(=O)N(C)[C@@H](CCCC)C(=O)N[C@@H](CC(C)C)C(=O)N[C@H](C(=O)NCC(N)=O)CSCC(=O)N[C@@H](Cc2ccc(O)cc2)C(=O)N(C)[C@@H](C)C(=O)N[C@@H](CC(=O)O)C(=O)N2CCC[C@H]2C(=O)N[C@@H](Cc2cnc[nH]2)C(=O)N[C@@H](CCCCN)C(=O)N2C[C@H](O)C[C@H]2C(=O)N[C@@H](Cc2c[nH]c3ccccc23)C(=O)N[C@@H](CCCCN)C(=O)N[C@@H](Cc2cn(CC(=O)O)c3ccccc23)C(=O)N1C [Example 6156] ({CH2CO}-Y[NMeA]DPHK[Hyp]WK[Trp(1-CH2COOH)][NMeNle][NMeNle]LCG-NH2; thioether N-14)
2,1 to 9.9,"CCCC[C@H]1C(=O)N2C[C@H](O)C[C@@H]2C(=O)N[C@@H](CC(=O)O)C(=O)N[C@@H](C(C)C)C(=O)N(C)[C@H](Cc2ccccc2)C(=O)N[C@@H](CC(=O)O)C(=O)N2C[C@H](O)C[C@@H]2C(=O)N[C@@H](Cc2c[nH]c3ccccc23)C(=O)N[C@@H](Cc2ccc(O)cc2)C(=O)N[C@@H](CCCN)C(=O)N[C@H](C(=O)NCC(N)=O)CSCC(=O)N[C@@H](Cc2ccc(F)c(F)c2)C(=O)N(C)[C@@H](Cc2ccccc2)C(=O)N1C [Example 9301] ({CH2CO}-[Phe(3,4-F2)][NMeF][NMeNle][d(cisHyp)]DV[dNMeF]D[d(cisHyp)]WY[Orn]CG-NH2; thioether N-13)"
3,1 to 9.9,"CCCC[C@H]1C(=O)N(C)[C@@H](CCCC)C(=O)N[C@@H](CCCNC(=N)N)C(=O)N[C@H](C(=O)NCC(N)=O)CSCC(=O)N[C@@H](Cc2ccc(OC)c(OC)c2)C(=O)N(C)[C@@H](C)C(=O)N[C@@H](CC(N)=O)C(=O)N2CCC[C@H]2C(=O)N[C@@H](Cc2cnc[nH]2)C(=O)N[C@@H](CC(C)C)C(=O)N2C[C@H](O)C[C@H]2C(=O)N[C@@H](Cc2c[nH]c3ccccc23)C(=O)N[C@@H](CO)C(=O)N[C@@H](Cc2c[nH]c3ccccc23)C(=O)N1C [Example 7072] ({CH2CO}-[Phe(3,4-(OMe)2)][NMeA]NPHL[Hyp]WSW[NMeNle][NMeNle]RCG-NH2; thioether N-14)"
4,1 to 9.9,"CCCC[C@H]1C(=O)N2CCC[C@@H]2C(=O)N[C@@H](CC(=O)O)C(=O)N[C@@H](C(C)C)C(=O)N(C)[C@@H](Cc2ccccc2)C(=O)N[C@@H](CCC(=O)O)C(=O)N2CCOC[C@@H]2C(=O)N[C@@H](Cc2c[nH]c3ccccc23)C(=O)N[C@@H](Cc2ccc(O)cc2)C(=O)N[C@@H](CCCN)C(=O)N[C@H](C(=O)NCC(N)=O)CSCC(=O)N[C@@H](Cc2cc(F)c(F)c(F)c2)C(=O)N(C)[C@@H](Cc2ccc(F)cc2)C(=O)N1C [Example 10596] ({CH2CO}-[Phe(3,4,5-F3)][NMePhe(4-F)][NMeNle][dP]DV[NMeF]E[X1]WY[Orn]CG-NH2; thioether N-13)"
5,1 to 9.9,"CCCC[C@H]1C(=O)N2C[C@H](O)C[C@@H]2C(=O)N[C@@H](CC(=O)O)C(=O)N[C@@H](C(C)C)C(=O)N(C)[C@@H](Cc2ccccc2)C(=O)N[C@@H](Cc2ccc(O)cc2)C(=O)N2CCOC[C@@H]2C(=O)N[C@@H](Cc2c[nH]c3ccccc23)C(=O)N[C@@H](Cc2ccc(O)cc2)C(=O)N[C@@H](CCO)C(=O)N[C@H](C(=O)NCC(N)=O)CSCC(=O)N[C@@H](Cc2cc(F)c(F)c(F)c2)C(=O)N(C)[C@@H](Cc2ccccc2)C(=O)N1C [Example 10159] ({CH2CO}-[Phe(3,4,5-F3)][NMeF][NMeNle][d(cisHyp)]DV[NMeF]Y[X1]WY[hSer]CG-NH2; thioether N-13)"
6,1 to 9.9,CCCC[C@H]1C(=O)N(C)[C@@H](CCCC)C(=O)N[C@@H](CN)C(=O)N[C@H](C(=O)NCC(N)=O)CSCC(=O)N[C@@H](Cc2ccc(O)cc2)C(=O)N(C)[C@@H](C)C(=O)N[C@@H](CC(=O)O)C(=O)N2CCC[C@H]2C(=O)N[C@@H](CN)C(=O)N[C@@H](CC(C)C)C(=O)N2C[C@H](O)C[C@H]2C(=O)N[C@@H](Cc2c[nH]c3ccccc23)C(=O)N[C@@H](CO)C(=O)N[C@@H](Cc2cn(CC(=O)O)c3ccccc23)C(=O)N1C [Example 5227] ({CH2CO}-Y[NMeA]DP[Dap]L[Hyp]WS[Trp(1-CH2COOH)][NMeNle][NMeNle][Dap]CG-NH2; thioether N-14)
7,1 to 9.9,CCCC[C@H]1C(=O)N2C[C@H](O)C[C@@H]2C(=O)N[C@@H](CC(=O)O)C(=O)N[C@@H](C(C)C)C(=O)N(C)[C@@H](Cc2ccccc2)C(=O)N[C@@H](CC(N)=O)C(=O)N2C[C@H](O)C[C@@H]2C(=O)N[C@@H](Cc2c[nH]c3ccccc23)C(=O)N[C@@H](Cc2ccc(O)cc2)C(=O)N[C@@H](CC(C)C)C(=O)N[C@H](C(=O)NCC(N)=O)CSCC(=O)N[C@@H](Cc2ccc(F)c(F)c2)C(=O)N(C)[C@@H](Cc2ccccc2)C(=O)N1C [Example 9292]

# Same assay, conditions: PD-L1-His 10 nM, PD-1-Ig 20 nM; read-out: HTRF Human PD-L1/PD-1 Binding Assay IC50
row,IC50 [nM],SMILES
1,12.6,CCCC[C@H]1C(=O)N2CCC[C@@H]2C(=O)N[C@@H](CC(N)=O)C(=O)N[C@@H](C(C)C)C(=O)N(C)[C@@H](Cc2ccccc2)C(=O)N[C@@H](Cc2ccc(O)cc2)C(=O)N2CSC[C@@H]2C(=O)N[C@@H](Cc2c[nH]c3ccccc23)C(=O)N[C@@H](Cc2ccc(O)cc2)C(=O)N[C@@H](CC(C)C)C(=O)N[C@H](C(=O)NCC(N)=O)CSCC(=O)N[C@@H](Cc2ccccc2)C(=O)N(C)[C@@H](Cc2ccccc2)C(=O)N1C [Example 10069] ({CH2CO}-F[NMeF][NMeNle][dP]NV[NMeF]Y[dThz]WYLCG-NH2; thioether N-13)
